Values quoted from earlier work, collected in article PMC11034360 (RSC Advances, 2024).

Tested on: H460, MDA-MB 468, MDA-MB-231 and glioblastoma (BT-33)
Details: comparison drug for Au(III) complexes; ref 45c

N.N.[Cl][Pt][Cl] [cisplatin]
IC50: 4.16 µM
